Assay results reported in publication PMC9632859, “Modulation of NMDA receptor activity by CR4056, an imidazoline-2 receptor ligand with analgesic properties” (Frontiers in Pain Research, 2022).
Several values for one entry are separate records, joined by “and”; a condition that tells them apart may be missing. Equal values may be shown once.

Tests used:
NMDA receptor = assay: NMDA-evoked currents in primary culture of cortical neurons, whole-cell patch-clamp; format: cell-based, rat; details: cortical neurons
Experimental: Primary cultures of cortical (CX) and cerebellar (CB) neurons were prepared from newborn (CX) or seven days old (CB) Sprague-Dawley rats Briefly, cells from cortex and cerebellum were dispersed with trypsin (0.24 mg/ml; Sigma Aldrich, Milan, Italy) and plated at a density of 0.8 × 10^6 cells/ml on 35 mm Falcon dishes coated with poly-L-lysine (10 µg/ml, Sigma Aldrich). Cells were plated in basal Eagle's Medium (BME; Celbio, Milan, Italy), supplemented with 10% fetal bovine serum (Celbio), 2 mM glutamine, 25 mM KCl and 100 µg/ml gentamycin (Sigma Aldrich) and maintained at 37°C in 5% CO2. After 24 h in vitro, the medium was replaced with 1:1 mixture of BME and Neurobasal medium (Celbio, Milan) containing 2% B27 supplement, 1% antibiotic, and 0.25% glutamine (Invitrogen). At […] in vitro (DIV5), cytosine arabinofuranoside (Ara-C) was added at final concentration of 1 µM. Thereafter, half of the medium was replaced twice a week with Neurobasal medium containing 2% B27 supplement, 1% antibiotic, and 0.25% glutamine.
(§1) Recordings were performed in cortical and cerebellar neurons after 7–9 days in culture or in spinal cord slices from postnatal rats. All recordings were performed at room temperature, under voltage-clamp in the whole-cell configuration of the patch-clamp technique ([19]). […] Currents were amplified with an Axopatch 1D amplifier (Axon Instruments, Foster City. CA), filtered at 5 kHz, digitized at 10 kHz.
(§2) The chamber used for recording from cultured neurons was continuously perfused at 2 ml/min with an extracellular medium composed of (mM): 145 NaCl, 5 KCl, 1 CaCl2, 5 Hepes, 5 Glucose, and 20 Sucrose, pH 7.4 with NaOH. Intracellular solution contains (mM): 140 KCl, 3 MgCl2, 5 EGTA, 5 Hepes, and 2 ATP-Na, pH 7.3 with KOH.
(§3) All drugs were applied directly by gravity through a Y-tube perfusion system ([21]) in the experiments performed in culture while in slice experiments CR4056 and the receptor antagonists were bath perfused.
When CR4056 (10 µM) was delivered inside the cell through the patch pipette the response to NMDA application was recorded at time 0 (just after breaking inside the cell) and after 1.5, 3, 4.5, 6 min. The NMDA-evoked current was recorded at these time intervals and the amplitude of the current was measured.
The effect of CR 4056 in primary neuronal cultures was calculated as % variation of the NMDA-evoked current after application of the drug. A negative variation means a reduction of the control current. Off-line data analysis, curve fitting, and figure preparation were performed with Clampfit 9 or 10 (Molecular Devices, Sunnyvale, CA, United States), Origin 4.1 (Microcal, Northampton, MA, United States), and Microsoft Office (Microsoft). SigmaPlot 11 (SYSTAT, Palo Alto, CA, United States) and GraphPad Prism 9.3 (GraphPad Software, San Diego, CA, United States) were used for statistical analysis.
NMDA-evoked currents were recorded in primary culture of cortical neurons using the patch-clamp technique in the whole cell configuration. Fast application of NMDA (100 µM) and Glycine (10 µM) elicited an inward current that was decreased by CR4056 (Figure 1A); the effect was reversible and dose-dependent (Figure 1B). […] (Figure 1B).

GluN1-GluN2B receptors = GluN1-GluN2B receptors (Homo sapiens, UniProt Q05586+Q13224); assay: NMDA-evoked currents in JM4C fibroblasts expressing GluN1-GluN2B; format: cell-based
Experimental: (§4) Mouse connective tissue fibroblasts JM4C cells stably transfected with NR1A/NR2A or NR1A/NR2B human NMDA inducible receptors were kindly donated by Dr. Paul Whiting, Merk Sharp / Dohme (UK). They were grown in Dulbecco's Modified Basal Eagle's medium (DMEM) with Na+ pyruvate, 4,500 mg glucose and glutamine. For growing, DMEM was added with geneticin 1 mg/ml (Sigma) and foetal bovine serum 10% (Celbio). One day before experiment, fibroblasts confluent dishes were split with trypsin-EDTA 0.05% (Euroclone) and plated at the density of 0.5 × 10^6 cells/ml in 2 ml dishes containing an inducing DMEM with ketamine (final concentration 0.015%, Gellini International, Italy) and 25 nM dexamethasone (Sigma Aldrich) to induce NMDA receptors expression.
as §1, §2, §3
(§5) Increasing concentrations of CR4056 (0.1–100 µM) were applied to NMDA-evoked currents in fibroblasts expressing GluN1- GluN2A or GluN1- GluN2B subunits (Figure 3A).

[1] = molecular target: GluN1-GluN2A containing receptors (Homo sapiens, UniProt Q05586+Q12879); assay: NMDA-evoked currents in JM4C fibroblasts expressing GluN1-GluN2A; format: cell-based
Experimental: as §4, §1, §2, §3, §5

PKCε translocation = tested on: PKCε translocation; set-up: method as in PMID 31454418; details: activated sensory neurons, cultured DRG; cited from earlier work

Sequence of GluN1-GluN2B receptors (Q13224 27-1484, other chains not shown): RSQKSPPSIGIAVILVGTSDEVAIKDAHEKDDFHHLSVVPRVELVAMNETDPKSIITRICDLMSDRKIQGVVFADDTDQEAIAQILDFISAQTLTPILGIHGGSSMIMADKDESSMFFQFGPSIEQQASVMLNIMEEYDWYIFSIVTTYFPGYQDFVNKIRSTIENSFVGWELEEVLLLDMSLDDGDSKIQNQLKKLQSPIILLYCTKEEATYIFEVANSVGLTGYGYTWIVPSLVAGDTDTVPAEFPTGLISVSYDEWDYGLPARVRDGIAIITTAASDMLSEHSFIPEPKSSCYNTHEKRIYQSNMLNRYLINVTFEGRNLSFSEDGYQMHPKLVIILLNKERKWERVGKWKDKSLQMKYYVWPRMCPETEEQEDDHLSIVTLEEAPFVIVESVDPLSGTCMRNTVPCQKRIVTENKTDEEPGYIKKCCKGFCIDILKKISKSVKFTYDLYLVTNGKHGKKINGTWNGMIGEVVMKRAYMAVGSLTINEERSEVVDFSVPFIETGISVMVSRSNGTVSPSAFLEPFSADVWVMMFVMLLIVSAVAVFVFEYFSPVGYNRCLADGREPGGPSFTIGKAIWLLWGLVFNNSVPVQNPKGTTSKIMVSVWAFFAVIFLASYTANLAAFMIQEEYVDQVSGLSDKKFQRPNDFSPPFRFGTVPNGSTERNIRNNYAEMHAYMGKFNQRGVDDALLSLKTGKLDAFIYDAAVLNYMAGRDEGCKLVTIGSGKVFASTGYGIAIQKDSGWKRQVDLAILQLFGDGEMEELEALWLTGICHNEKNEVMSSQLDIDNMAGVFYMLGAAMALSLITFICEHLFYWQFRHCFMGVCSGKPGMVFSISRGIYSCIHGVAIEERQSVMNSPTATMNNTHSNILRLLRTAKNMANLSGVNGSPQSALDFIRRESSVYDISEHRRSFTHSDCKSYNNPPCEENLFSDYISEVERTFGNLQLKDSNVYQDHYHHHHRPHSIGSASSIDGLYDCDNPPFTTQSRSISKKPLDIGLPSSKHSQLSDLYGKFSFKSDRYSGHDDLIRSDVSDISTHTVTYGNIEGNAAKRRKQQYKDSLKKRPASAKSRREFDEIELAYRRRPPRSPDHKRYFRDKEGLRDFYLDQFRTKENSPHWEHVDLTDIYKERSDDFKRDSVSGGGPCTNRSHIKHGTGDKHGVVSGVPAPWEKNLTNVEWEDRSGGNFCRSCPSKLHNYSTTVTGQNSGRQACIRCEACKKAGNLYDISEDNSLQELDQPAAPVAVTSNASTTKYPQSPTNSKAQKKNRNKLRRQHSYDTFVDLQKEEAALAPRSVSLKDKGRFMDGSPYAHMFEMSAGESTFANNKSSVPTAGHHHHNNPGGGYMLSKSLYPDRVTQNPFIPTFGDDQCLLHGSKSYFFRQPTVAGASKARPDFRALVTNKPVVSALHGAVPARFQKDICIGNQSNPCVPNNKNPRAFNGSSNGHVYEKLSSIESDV
Sequence of GluN1-GluN2A containing receptors (Q12879 23-1464, other chains not shown): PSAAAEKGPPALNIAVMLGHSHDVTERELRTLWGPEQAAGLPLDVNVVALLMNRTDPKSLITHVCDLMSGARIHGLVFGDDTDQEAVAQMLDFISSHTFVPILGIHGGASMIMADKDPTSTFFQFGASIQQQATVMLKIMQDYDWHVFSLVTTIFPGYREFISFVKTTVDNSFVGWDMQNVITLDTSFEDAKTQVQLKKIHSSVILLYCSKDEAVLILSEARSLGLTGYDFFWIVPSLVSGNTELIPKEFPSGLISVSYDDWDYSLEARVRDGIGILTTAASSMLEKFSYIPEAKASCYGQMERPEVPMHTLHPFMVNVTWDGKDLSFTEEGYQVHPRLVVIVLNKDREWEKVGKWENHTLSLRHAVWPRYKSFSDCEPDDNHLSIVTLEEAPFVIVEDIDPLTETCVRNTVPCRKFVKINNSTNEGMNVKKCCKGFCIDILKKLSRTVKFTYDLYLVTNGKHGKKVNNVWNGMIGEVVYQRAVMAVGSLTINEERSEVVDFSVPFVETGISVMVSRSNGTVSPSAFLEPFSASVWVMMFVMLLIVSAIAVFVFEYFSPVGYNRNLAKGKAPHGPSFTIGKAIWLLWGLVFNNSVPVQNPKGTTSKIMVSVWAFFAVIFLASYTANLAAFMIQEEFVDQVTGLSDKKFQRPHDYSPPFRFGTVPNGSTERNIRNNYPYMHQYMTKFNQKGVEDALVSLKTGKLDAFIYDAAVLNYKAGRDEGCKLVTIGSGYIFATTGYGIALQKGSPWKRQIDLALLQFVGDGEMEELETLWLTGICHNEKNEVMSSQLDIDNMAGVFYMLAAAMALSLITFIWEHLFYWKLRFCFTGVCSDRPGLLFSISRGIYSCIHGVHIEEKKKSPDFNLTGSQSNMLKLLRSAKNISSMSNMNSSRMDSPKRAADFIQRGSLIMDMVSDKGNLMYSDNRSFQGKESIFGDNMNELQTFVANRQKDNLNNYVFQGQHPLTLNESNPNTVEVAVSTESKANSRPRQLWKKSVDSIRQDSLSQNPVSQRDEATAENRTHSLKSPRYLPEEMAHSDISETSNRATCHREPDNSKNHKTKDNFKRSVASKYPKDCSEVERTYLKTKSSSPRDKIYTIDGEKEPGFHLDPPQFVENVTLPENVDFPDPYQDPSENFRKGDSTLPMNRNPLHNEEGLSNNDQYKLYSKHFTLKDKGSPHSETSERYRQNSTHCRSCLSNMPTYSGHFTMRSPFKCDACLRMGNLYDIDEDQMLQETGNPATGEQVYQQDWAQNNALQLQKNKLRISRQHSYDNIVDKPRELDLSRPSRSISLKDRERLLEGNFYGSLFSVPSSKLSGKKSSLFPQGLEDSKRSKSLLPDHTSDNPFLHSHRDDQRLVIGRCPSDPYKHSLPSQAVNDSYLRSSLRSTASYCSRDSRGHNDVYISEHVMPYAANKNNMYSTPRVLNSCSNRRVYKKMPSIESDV

With `Cl.c1ccc2oc(C3=NCCN3)cc2c1` [2-BFI, 2-(2-Benzofuranyl)-2-imidazoline hydrochloride, reference compound] the IC50 (NMDA receptor; NMDA 100 µM + glycine 10 µM, read-out: IC50 of reduction of NMDA-evoked current) was 8 µM and 13 µM, the “maximal reduction of NMDA current (efficacy)” value (NMDA receptor; from dose-response curve) was 76 ± 2% and 48 ± 5% and the IC50 (GluN1-GluN2B receptors; 0.1–100 µM, read-out: IC50 of reduction of NMDA-evoked current, GluN1-GluN2B) was 11 ± 6 µM. It also gave an Emax (GluN1-GluN2B receptors; read-out: efficacy (Eff, maximal effect) on NMDA-evoked current, GluN1-GluN2B) of -73 ± 7%, an IC50 ([1]; 0.1–100 µM, read-out: IC50 of reduction of NMDA-evoked current, GluN1-GluN2A) of 23 ± 12 µM and an Emax ([1]; read-out: efficacy (Eff, maximal effect) on NMDA-evoked current, GluN1-GluN2A) of -39 ± 6%. The “effect on PKCε translocation” value (PKCε translocation) was “ineffective”.
